“And” between values parts separate entries of the source, which are not always exact repeats. Equal values may be shown once. Read-outs that look alike come from different tables or passages of the source.
What was measured:
[1] = test system: TSLP production in NHBE cells; test: TSLP HTRF assay (TSLP production in poly I:C / IL-4 stimulated NHBE cells); type: cell-based, human
Experimental: For dose response curves determinations, stocks of test compounds at a concentration of 1.33x10^-3 M in DMSO were sequentially diluted at 1:4 dilution steps before further 1/50 dilution in BEBM medium containing 1x ITS and 0.1% BSA. For the highest 4 μM concentration test compounds were resuspended in DMSO at a concentration of 2.5x10^-3 M and diluted 1/25 in BEBM medium containing 1x ITS and 0.1% BSA before adding 1 μl to the wells containing the cells.
All subsequent steps were automated using a Sciclone® G3 workstation (Perkin Elmer) with a Twister™ II robot (Perkin Elmer). […] 1 μl of test compound solution prepared at 25x concentration was added to the wells containing NHBE cells. The plates were then incubated during 90 minutes at 37°C, 5% CO2, 90% humidity before adding poly I:C (Invivogen HMW Tirl-pic-5) and human IL-4 (Peprotech 200–04) stimulus in 4 μl of BEBM medium containing 1x ITS, 0.1% BSA and 0.1% DMSO using a Multidrop™. […] Cells were then incubated for 24h in the presence of test compounds and stimulus at 37°C, 5% CO2 and 90% humidity conditions. After the 24h incubation period the plates were transferred to a CyBi®-Well platform (CyBio AG) to collect 10 μl of the supernatants which were transferred to a new plate. TSLP levels in the supernatant were determined using a homogeneous Time-Resolved Fluorescence (HTRF) assay custom developed by Cisbio. The assay was based in the use of a donor dye (europium cryptate) coupled to a monoclonal anti-TSLP antibody and an acceptor dye (d2) coupled to a second polyclonal anti-TSLP antibody. […] 10 μl of the resulting solution was then used to determine TSLP levels as described above.
The standard curve was built with eight points prepared in ITS/BSA in BEBM medium without supplements, starting at 700 pg/ml and diluted 1:2, with medium alone being zero TSLP. Fitting model corresponded to equation 100 of Excel fit software. Data from the primary phenotypic screen was visualized using Vortex (Dotmatics). […] For compound selection the maximum inhibition of the two individual duplicate values was taken into account. Dose response confirmation was performed at single point in the 2 donors tested. 9 point curves were run starting at 4 μM concentration by doing serial 1:4 dilutions in cells derived from both donors.

CHO-K1 cells = test: CHO-K1 viability (ATPlite); type: cell-based
Experimental: The viability of NHBE and CHO-K1 cells was quantified using ATP as an indirect read out of the potential cytotoxicity of the compounds. […] Plates were shaken and covered with aluminium foil for 25 min. Luminescence was measured in an Envision reader (Perkin Elmer). Evaluation of viability in CHO-K1 cells was used as an internal compound cytotoxicity standard across cellular assays. […] The plates were incubated for 24 h at 37°C in 5% CO2. After the incubation period, the culture medium was removed and washed with 100 μl of DPBS. Test compounds were dissolved and serially diluted in 100% DMSO. A final 1/100 dilution of each concentration was performed using F12 culture medium with 0.5% FBS. A volume of 100 μl culture medium containing the compounds or 1% DMSO (for control wells) was added to the wells containing the cells and the plate was incubated again 24h. After 24h of compound exposure, cells were washed with DPBS. Then, 100 μl of PBS were added, followed by the addition of 100 μl of ATPlite™ reagent. The plate was shaken for 25 minutes using a microtiter plate shaker. Luminescence was measured using a Luminoskan Ascent luminometer (Thermo Fisher Scientific).
For CHO-K1 viability assays, a standard curve of cells was included in the plate. Luminescence values versus cell number were plotted and the data adjusted to a linear equation. Luminescence values of the samples were interpolated to obtain number of cells. IC50 values were obtained by non-linear regression using Activity Base software (IDBS) and a four-parameter log equation.

[2] = test system: TSLP mRNA levels in NHBE cells; test: TSLP mRNA real-time PCR (qPCR) in NHBE cells; type: cell-based, human; set-up: TSLP mRNA upregulation (% versus control) / % Inhibition of mRNA: dose or concentration left out as unconfirmed; details: for % Inhibition of mRNA at [4 μM] ± SD: NHBE donor #1, 6 h stimulation; for % Inhibition of mRNA: individual values, donor #1
Syk = Syk (Homo sapiens, UniProt P43405); test: Enzymatic Syk kinase activity assay; type: biochemical
LAD2 cells degranulation = test: Syk dependent LAD2 cells degranulation; type: cell-based, human
Experimental: Normal human bronchial epithelial cells (NHBE) (Lonza CC-2540,) corresponding to 2 different lots derived from 2 human healthy donors, henceforth referred to as donors #1 and #2, were purchased from Lonza, who provided the cells after obtaining permission for use in research applications by informed consent. Cells were cultured in 5% CO2 at 37°C according to the manufacturer´s instructions using Lonza´s Bronchial Epithelial Basal Medium (BEBM) (CC-3171) supplemented with Lonza´s Bronchial Epithelial Cell Growth Medium bullet kit (BEGM) (CC-4175), and grown in collagen coated T-75 and T-175 tissue culture flasks as required (Becton Dickinson 356485 and 356487). Subculturing after trypsinization and amplification was performed using Lonza´s reagent pack subculture reagents (CC-5034) following the manufacturer´s instructions. CHO-K1 and THP-1 cells were purchased from the ATCC through LGC standards (ATCC CCL-61 and TIB-202 respectively). The LAD2 cell line is a human mast cell line established at the National Institutes of Health (Bethesda, Maryland, U.S.).
Quantification of enzymatic p38 activity and p38-dependent TNF production in THP-1 cells was performed as previously described. Enzymatic Syk kinase activity assays and Syk dependent LAD2 cells degranulation assays were performed as previously described. PI3Kδ dependent pAkt phosphorylation in macrophage colony-stimulating factor (M-CSF) stimulated THP-1 cells was measured as previously described.

[3] = Homo sapiens, NHBE, 24 h, NHBE cells donor #1, poly I:C / IL-4, 24h, geometric mean, read-out: Inhibition of TSLP protein production (IC50, μM) (95% CI)
[4] = individual values, donor #1, read-out: Inhibition of TSLP production in NHBE (IC50)
[5] = Cricetulus griseus, CHO-K1, geometric mean, read-out: Inhibition of CHO viability (IC50, μM) (95% CI)
[6] = individual values, read-out: Inhibition of CHO viability (IC50 mM)
[7] = individual values, read-out: Biochemical activity (IC50, mM) (Syk)
[8] = Homo sapiens, LAD2, geometric mean, read-out: Activity in reference cell based assay (IC50, μM) (95% CI) LAD2 cells degranulation
[9] = Homo sapiens, LAD2, individual values, read-out: Cellular activity (IC50, mM) LAD2 cells degranulation
[10] = individual values, read-out: Cellular activity (IC50, mM) LAD2 cells degranulation
[11] = geometric mean, read-out: Activity in reference biochemical assay (IC50, μM) (95% CI) Syk

COc1ccc(-c2ccc3c(N4CCOC[C@@H]4C)nc(N4CCOC[C@@H]4C)nc3n2)cc1CO [AZD8055, reference compound]
IC50 [1, 3]: 0.002 µM | IC50 [1, 4]: 0.00097 µM and 0.00482 µM and 0.00467 µM | Inhibition of CHO viability % Inhibition ± SD at 3.12 μM (CHO-K1 cells): 20.47% ± 4.6 (n = 4)

COC(=O)Nc1nc2ccc(C(=O)c3cccs3)cc2[nH]1 [Nocodazole, reference compound]
IC50 [1, 3]: 0.9 µM | IC50 [1, 4]: 1.23 µM and 0.512 µM and 1.16 µM | % Inhibition of mRNA at [4 μM] ± SD [2]: 84.62 ± 1.76% | % Inhibition of mRNA [2]: 83.366% and 85.867%

C[C@@H]1O[C@@H](O[C@H]2C[C@@H](O)[C@]3(CO)[C@H]4[C@H](O)C[C@]5(C)[C@@H](C6=CC(=O)OC6)CC[C@]5(O)[C@@H]4CC[C@]3(O)C2)[C@H](O)[C@H](O)[C@H]1O [Ouabain, reference compound]
IC50 [1, 3]: 0.016 µM | IC50 ([1]; Homo sapiens, NHBE, individual values, donor #1, read-out: Inhibition of TSLP production in NHBE (IC50)): 0.022 µM | IC50 [1, 4]: 0.013 µM and 0.014 µM | % Inhibition of mRNA at [4 μM] ± SD [2]: 94.64 ± 0.33% | % Inhibition of mRNA [2]: 94.409% and 94.877%

C[C@@H]1CCN(C(=O)CC#N)C[C@@H]1N(C)c1ncnc2[nH]ccc12 [Tofacitinib, reference compound]
Inhibition of CHO viability at [25 μM] % Inhibition ± SD (CHO-K1 cells; 25 μM): 0.37 ± 4.3%

COc1ccc(N(C)c2nc(NC/C=C(\C)CCC=C(C)C)nc3ccccc23)cc1 [compound 6]
IC50 [1, 3]: 0.101 µM | IC50 [1, 4]: 0.121 µM and 0.062 µM and 0.141 µM | % Inhibition of mRNA at [4 μM] ± SD [2]: 95.04 ± 0.77% | % Inhibition of mRNA [2]: 95.589% and 94.492%

CCn1cc(-c2cccc(-c3cnc(N)c(C(=O)NC4C5CC6CC4CC(O)(C6)C5)n3)c2)cn1 (stereo not shown) [compound 9]
IC50 [1, 3]: 0.302 µM | IC50 [1, 4]: 0.584 µM and 0.2 µM and 0.237 µM | IC50 (CHO-K1 cells; [5]): 7 µM | IC50 (CHO-K1 cells; [6]): 8.21 µM and 7.68 µM and 4.44 µM and 9.37 µM and 6.42 µM | IC50 (Syk; [7]): 0.024 µM and 0.022 µM | IC50 (LAD2 cells degranulation; [8]): 0.182 µM | IC50 (LAD2 cells degranulation; [9]): 0.183 µM | IC50 (LAD2 cells degranulation; [10]): 0.181 µM

COc1cc(-c2cnn(C)c2)cc(-c2cnc(N)c(C(=O)N[C@@H]3[C@@H]4C[C@@H]5C[C@H]3C[C@@](O)(C5)C4)n2)c1 [compound 10]
IC50 [1, 3]: 0.277 µM | IC50 [1, 4]: 0.584 µM and 0.198 µM and 0.184 µM | Inhibition of CHO viability % Inhibition ± SD at 3.75 μM (CHO-K1 cells): 35.3 % ± 5.5 | Inhibition of CHO viability % at 3.75 micromolar (CHO-K1 cells; individual values): 42.5% and 36.2% and 31.8% and 30% | IC50 (Syk; [11]): 0.033 µM | IC50 (Syk; [7]): 0.0338 µM and 0.0331 µM | IC50 (LAD2 cells degranulation; [8]): 0.118 µM | IC50 (LAD2 cells degranulation; [9]): 0.124 µM | IC50 (LAD2 cells degranulation; [10]): 0.113 µM

Nc1ncc(-c2cccc(-c3cccnc3)c2)nc1C(=O)NC1C2CC3CC1CC(O)(C3)C2 (stereo not shown) [compound 11]
IC50 [1, 3]: 1.14 µM | IC50 [1, 4]: 1.45 µM and 1.79 µM and 0.56 µM | IC50 (CHO-K1 cells; [5]): 7.85 µM | IC50 (CHO-K1 cells; Cricetulus griseus, CHO-K1, individual values, read-out: Inhibition of CHO viability (IC50 mM)): 8.33 µM | IC50 (CHO-K1 cells; [6]): 8.4 µM and 7.19 µM and 7.56 µM | IC50 (Syk; [11]): 0.066 µM | IC50 (Syk; [7]): 0.062 µM and 0.071 µM | IC50 (LAD2 cells degranulation; [8]): 0.26 µM | IC50 (LAD2 cells degranulation; [9]): 0.313 µM | IC50 (LAD2 cells degranulation; [10]): 0.217 µM

Cn1cc(-c2cccc(-c3cnc(N)c(C(=O)NC4C5CC6CC4CC(O)(C6)C5)n3)c2)cn1 (stereo not shown) [compound 12]
IC50 [1, 3]: 0.253 µM | IC50 [1, 4]: 0.376 µM and 0.251 µM and 0.172 µM | Inhibition of CHO viability % Inhibition ± SD at 3.75 μM (CHO-K1 cells): 19 % ± 1 | Inhibition of CHO viability % at 3.75 micromolar (CHO-K1 cells; individual values): 20.7% and 17.8% and 20.2% and 20.8% | IC50 (Syk; [11]): 0.022 µM | IC50 (Syk; [7]): 0.025 µM and 0.021 µM | IC50 (LAD2 cells degranulation; [8]): 0.118 µM | IC50 (LAD2 cells degranulation; [9]): 0.107 µM | IC50 (LAD2 cells degranulation; [10]): 0.131 µM

Nc1ncc(-c2ccc3[nH]ncc3c2)nc1C(=O)NC1C2CC3CC1CC(O)(C3)C2 (stereo not shown) [compound 13]
IC50 [1, 3]: 0.19 µM | IC50 [1, 4]: 0.365 µM and 0.164 µM and 0.116 µM | Inhibition of CHO viability % Inhibition ± SD at 3.12 μM (CHO-K1 cells): 36 % ± 3 | Inhibition of CHO viability % at 3.12 micromolar (CHO-K1 cells; individual values): 39.6% and 37.7% and 35.3% and 31.4% | IC50 (Syk; [11]): 0.334 µM | IC50 (Syk; [7]): 0.397 µM and 0.28 µM

Nc1ncc(-c2ccc3cn[nH]c3c2)nc1C(=O)NC1C2CC3CC1CC(O)(C3)C2 (stereo not shown) [compound 14]
IC50 [1, 3]: 0.359 µM | IC50 [1, 4]: 0.237 µM and 0.804 µM and 0.244 µM | Inhibition of CHO viability % Inhibition ± SD at 3.75 μM (CHO-K1 cells): 42 % ± 10 | Inhibition of CHO viability % at 3.75 micromolar (CHO-K1 cells; individual values): 51.55% and 51.37% and 30.13% and 37.95% | IC50 (Syk; [7]): 0.209 µM and 0.159 µM | IC50 (LAD2 cells degranulation; [8]): 0.403 µM | IC50 (LAD2 cells degranulation; [9]): 0.409 µM | IC50 (LAD2 cells degranulation; [10]): 0.398 µM

COc1ccc(N(C)c2nc(C)nc3ccccc23)cc1 [compound 16]
IC50 [1, 3]: 0.007 µM | IC50 (CHO-K1 cells; [5]): 28.8 µM | Inhibition of CHO viability % at 3.12 micromolar (CHO-K1 cells; individual values): 1.13% and 6.28% and -14.28% and -12.18%

Source: PMC5761851, “Application of a phenotypic drug discovery strategy to identify biological and chemical starting points for inhibition of TSLP production in lung epithelial cells” (PLoS ONE, 2018)
